Counter-ions that a name gives are not always drawn.
System: HCT116
Conditions: 72 h
Method in brief: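 Each well of the 1536-well plates received 250 HCT116 cells, which attached over 5 h. Luminescence was measured with CellTiter-Glo, scaled with vehicle as 0% and positive control as -100%, and pattern-corrected. A four-parameter Hill fit yielded IC50 and maximal efficacy.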

Row | IC50 cell viability (ICRF193 0 nM) [µM] | IC50 cell viability (ICRF193 200 nM) [µM] | SMILES
1 | > 45.8 | > 45.8 | COc1cccc(N2CCN(C3=Nc4c(F)cccc4[C@H](CC(=O)O)N3c3cc(C(F)(F)F)ccc3OC)CC2)c1 [Letermovir]
2 | > 45.8 | > 45.8 | N#Cc1ccc(C(c2ccc(C#N)cc2)n2cncn2)cc1 [Letrozole]
3 | > 45.8 | > 45.8 | c1ccc([C@H]2CN3CCSC3=N2)cc1 [Levamisole hydrochloride]
4 | > 45.8 | > 45.8 | CC(C)(C)NC[C@H](O)COc1cccc2c1CCCC2=O [Levobunolol hydrochloride]
5 | > 45.8 | > 45.8 | CCCCN1CCCC[C@H]1C(=O)Nc1c(C)cccc1C [Levobupivacaine hydrochloride]
6 | > 45.8 | > 45.8 | N[C@@H](Cc1ccc(O)c(O)c1)C(=O)O [Levodopa]
7 | > 45.8 | > 45.8 | C[C@H]1COc2c(N3CCN(C)CC3)c(F)cc3c(=O)c(C(=O)O)cn1c23 [Levofloxacin]
8 | > 45.8 | > 45.8 | CN1c2c([nH]c(N)nc2=O)NC[C@@H]1CNc1ccc(C(=O)N[C@@H](CCC(=O)O)C(=O)O)cc1 [Levomefolate calcium]
9 | > 45.8 | > 45.8 | CCN1CCC[C@H]1CNC(=O)c1cc(S(N)(=O)=O)ccc1OC [Levosulpiride]
10 | > 45.8 | > 45.8 | CNC(=O)c1cnn(-c2nc(N)c3ncn([C@@H]4O[C@H](CO)[C@@H](O)[C@H]4O)c3n2)c1 [Lexiscan]
11 | > 45.8 | > 45.8 | Clc1cccc(C(c2ccc3[nH]cnc3c2)n2ccnc2)c1 (stereo not given) [Liarozole]
12 | > 45.8 | > 45.8 | CCN(CC)CC(=O)Nc1c(C)cccc1C [Lidocaine]
13 | > 45.8 | > 45.8 | CC1(C)O[C@H]2CC(=O)OC[C@]23[C@H]2CC[C@@]4(C)[C@H](c5ccoc5)OC(=O)[C@H]5O[C@]54[C@]2(C)C(=O)C[C@@H]13 [Limoni]
14 | > 45.8 | > 45.8 | CC#CCn1c(N2CCC[C@@H](N)C2)nc2c1c(=O)n(Cc1nc(C)c3ccccc3n1)c(=O)n2C [Linagliptin]
15 | > 45.8 | > 45.8 | CCC[C@@H]1C[C@@H](C(=O)N[C@@H]([C@H]2O[C@H](SC)[C@H](O)[C@@H](O)[C@H]2O)[C@@H](C)O)N(C)C1 [Lincomycin hydrochloride]
16 | > 45.8 | > 45.8 | CC(=O)NC[C@H]1CN(c2ccc(N3CCOCC3)c(F)c2)C(=O)O1 [Linezolid]
17 | > 45.8 | > 45.8 | CC/C=C\C/C=C\C/C=C\CCCCCCCC(=O)O [Linolenic acid]
18 | > 45.8 | > 45.8 | N[C@@H](Cc1cc(I)c(Oc2ccc(O)c(I)c2)c(I)c1)C(=O)O [Liothyronine Sodium]
19 | > 45.8 | > 45.8 | COc1cccc(N(C)C(=S)Oc2ccc3c(c2)CCCC3)n1 [Liranaftate]
20 | > 45.8 | > 45.8 | NCCCC[C@H](N[C@@H](CCc1ccccc1)C(=O)O)C(=O)N1CCC[C@H]1C(=O)O [Lisinopril dihydrate]
21 | > 45.8 | > 45.8 | O=C(O)c1ccccc1Nc1cc(Cl)ccc1C(=O)O [Lobenzarit sodium]

Row | IC50 cell viability (ICRF193 0 nM) [µM] | IC50 cell viability (ICRF193 200 nM) [µM] | SMILES
22 | > 45.8 | > 45.8 | N#Cc1cc(NC(=O)C(=O)O)c(Cl)c(NC(=O)C(=O)O)c1 [Lodoxamide]
23 | > 45.8 | > 45.8 | CN(CCCN1c2ccccc2CCc2ccccc21)CC(=O)c1ccc(Cl)cc1 [Lofepramine hydrochloride]
24 | > 45.8 | > 45.8 | CC(Oc1c(Cl)cccc1Cl)C1=NCCN1 (stereo not given) [Lofexidine]
25 | > 45.8 | > 45.8 | CCn1cc(C(=O)O)c(=O)c2cc(F)c(N3CCNC(C)C3)c(F)c21 (stereo not given) [Lomefloxacin hydrochloride]
26 | > 45.8 | > 45.8 | O=NN(CCCl)C(=O)NC1CCCCC1 [Lomustine]
27 | > 45.8 | > 45.8 | N[C@@H](C(=O)N[C@@H]1C(=O)N2C(C(=O)O)=C(Cl)CC[C@H]12)c1ccccc1 [Loracarbef]
28 | > 45.8 | > 45.8 | CN1C(C(=O)Nc2ccccn2)=C(O)c2sc(Cl)cc2S1(=O)=O [Lornoxicam]
29 | > 45.8 | > 45.8 | CCCCc1nc(Cl)c(CO)n1Cc1ccc(-c2ccccc2-c2nnn[nH]2)cc1 [Losartan]
30 | > 45.8 | > 45.8 | CCOC(=O)O[C@]1(C(=O)OCCl)CC[C@H]2[C@@H]3CCC4=CC(=O)C=C[C@]4(C)[C@H]3[C@@H](O)C[C@@]21C [Loteprednol etabonate]
31 | > 45.8 | > 45.8 | CN1CCN(C2=Nc3ccccc3Oc3ccc(Cl)cc32)CC1 [Loxapine succinate]
32 | > 45.8 | > 45.8 | CCCCCN(CCCOC)C(=O)C(CCC(=O)O)NC(=O)c1ccc(Cl)c(Cl)c1 (stereo not given) [Loxiglumide]
33 | > 45.8 | > 45.8 | CC(C(=O)O)c1ccc(CC2CCCC2=O)cc1 (stereo not given) [Loxoprofen]
34 | > 45.8 | > 45.8 | CCCCC(F)(F)[C@@]1(O)CC[C@H]2[C@@H](CC(=O)[C@@H]2CCCCCCC(=O)O)O1 [Lubiprostone]
35 | > 45.8 | > 45.8 | Cc1ccc(NC(=O)C2(c3ccc4c(c3)OC(F)(F)O4)CC2)nc1-c1cccc(C(=O)O)c1 [Lumacaftor]
36 | > 45.8 | > 45.8 | Cc1ccc(Nc2c(F)cccc2Cl)c(CC(=O)O)c1 [Lumiracoxib]
37 | > 45.8 | > 45.8 | CCCCCCO[C@@H](C)c1cccc(-c2csc(NC(=O)c3cc(Cl)c(/C=C(\C)C(=O)O)c(Cl)c3)n2)c1OC [Lusutrombopag]
38 | > 45.8 | > 45.8 | CC(C)=CCC/C(C)=C/C=C/C(C)=C/C=C/C(C)=C/C=C/C=C(C)/C=C/C=C(C)/C=C/C=C(\C)CCC=C(C)C [Lycopene]
39 | > 45.8 | > 45.8 | CN(C)[C@@H]1C(O)=C(C(=O)NCNCCCC[C@H](N)C(=O)O)C(=O)[C@@]2(O)C(O)=C3C(=O)c4c(O)cccc4[C@@](C)(O)[C@H]3C[C@@H]12 [Lymecycline]
40 | > 45.8 | > 45.8 | C#C[C@]1(O)CC[C@H]2[C@@H]3CCC4=CCCC[C@@H]4[C@H]3CC[C@@]21C [Lynestrenol]
41 | > 45.8 | > 45.8 | Cc1cnc(NC(=O)C2=C(O)c3ccccc3S(=O)(=O)N2C)s1 [MELOXICAM SODIUM]

Row | SMILES | IC50 cell viability (ICRF193 0 nM) [µM] | IC50 cell viability (ICRF193 200 nM) [µM]
42 | CC[C@@H](C(N)=O)N1CCCC1=O [Levetiracetam] | > 45.8 | > 45.8
43 | C[C@@H]1CN([C@H]2CC[C@](C#N)(c3ccc(F)cc3)CC2)CC[C@]1(C(=O)O)c1ccccc1 [Levocabastine hydrochloride] | > 45.8 | > 45.8
44 | C[C@H](N)[C@H](O)c1ccc(O)c(O)c1 [Levonordefrin] | > 45.8 | > 45.8
45 | CCC(=O)O[C@@](Cc1ccccc1)(c1ccccc1)[C@@H](C)CN(C)C [Levopropoxyphene napsylate] | > 45.8 | > 45.8
